Patent US9187471B2, “Pyrido [4,3-b] indole and pyrido [3,4-b] indole derivatives and methods of use” (Medivation Technologies, Inc., priority 2010, dated 2015)

Legend:
[1] = target: T1, human recombinant serotonin (5-Hydroxytryptamine) 5-HT2A receptor (Homo sapiens, UniProt P28223); experiment: Serotonin 5-HT2A radioligand binding ([3H]Ketanserin); details: compound at 0.1 μM; read-out: Inhibition of ligand binding, Serotonin 5-HT2A (percent inhibition of specific binding)
T1 construct: expressed in transfected cells; host or cells: CHO-K1
T1 sequence (P28223 whole entry): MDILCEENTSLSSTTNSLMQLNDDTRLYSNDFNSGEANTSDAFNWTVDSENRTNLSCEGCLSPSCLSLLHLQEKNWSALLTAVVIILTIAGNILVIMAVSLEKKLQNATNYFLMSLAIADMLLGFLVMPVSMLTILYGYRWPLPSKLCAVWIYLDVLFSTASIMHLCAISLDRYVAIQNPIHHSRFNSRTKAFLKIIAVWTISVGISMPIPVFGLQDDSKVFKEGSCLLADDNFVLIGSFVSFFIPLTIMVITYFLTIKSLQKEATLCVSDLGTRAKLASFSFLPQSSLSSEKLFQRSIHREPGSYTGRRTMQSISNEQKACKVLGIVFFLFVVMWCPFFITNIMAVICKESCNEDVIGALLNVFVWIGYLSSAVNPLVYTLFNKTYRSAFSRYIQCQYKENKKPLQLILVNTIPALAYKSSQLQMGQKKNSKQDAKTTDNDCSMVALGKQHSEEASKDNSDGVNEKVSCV
Description: Compounds of the invention were incubated with 0.5 nM [^3H]Ketanserin for 60 min at 25° C. Non-specific binding was estimated in the presence of 1 μM Mianserin. Receptor proteins were filtered and washed, the filters were then counted to determine [^3H]Ketanserin specifically bound.

[2] = target: T2, human recombinant serotonin (5-Hydroxytryptamine) 5-HT7 receptor (Homo sapiens, UniProt P34969); experiment: Serotonin 5-HT7 radioligand binding ([3H]LSD); details: compound at 0.1 μM; read-out: Inhibition of ligand binding, Serotonin 5-HT7 (percent inhibition of specific binding)
T2 construct: expressed in transfected cells; host or cells: CHO
T2 sequence (P34969 whole entry): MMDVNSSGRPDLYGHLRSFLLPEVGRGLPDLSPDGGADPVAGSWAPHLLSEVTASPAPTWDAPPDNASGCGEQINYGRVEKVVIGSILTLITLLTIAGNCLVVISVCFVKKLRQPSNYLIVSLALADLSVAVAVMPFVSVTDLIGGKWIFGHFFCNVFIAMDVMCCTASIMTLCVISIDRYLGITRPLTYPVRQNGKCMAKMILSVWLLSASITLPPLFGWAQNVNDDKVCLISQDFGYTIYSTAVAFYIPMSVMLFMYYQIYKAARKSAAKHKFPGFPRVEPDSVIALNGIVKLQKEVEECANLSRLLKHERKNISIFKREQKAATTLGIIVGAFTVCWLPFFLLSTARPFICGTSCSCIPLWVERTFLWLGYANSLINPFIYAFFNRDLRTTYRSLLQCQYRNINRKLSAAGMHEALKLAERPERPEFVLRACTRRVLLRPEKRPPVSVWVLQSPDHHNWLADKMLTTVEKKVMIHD
Description: Lysergic acid diethylamide (LSD) for 120 min. at 25° C. […] Receptor proteins were filtered and washed, the filters were then counted to determine [^3H]LSD specifically bound.

[3] = target: T3, human recombinant serotonin (5-Hydroxytryptamine) 5-HT6 receptor (Homo sapiens, UniProt P50406); experiment: Serotonin 5-HT6 radioligand binding ([3H]LSD); details: compound at 0.1 μM; read-out: Inhibition of ligand binding, Serotonin 5-HT6 (percent inhibition of specific binding)
T3 construct: expressed in transfected cells; host or cells: HeLa
T3 sequence (P50406 whole entry): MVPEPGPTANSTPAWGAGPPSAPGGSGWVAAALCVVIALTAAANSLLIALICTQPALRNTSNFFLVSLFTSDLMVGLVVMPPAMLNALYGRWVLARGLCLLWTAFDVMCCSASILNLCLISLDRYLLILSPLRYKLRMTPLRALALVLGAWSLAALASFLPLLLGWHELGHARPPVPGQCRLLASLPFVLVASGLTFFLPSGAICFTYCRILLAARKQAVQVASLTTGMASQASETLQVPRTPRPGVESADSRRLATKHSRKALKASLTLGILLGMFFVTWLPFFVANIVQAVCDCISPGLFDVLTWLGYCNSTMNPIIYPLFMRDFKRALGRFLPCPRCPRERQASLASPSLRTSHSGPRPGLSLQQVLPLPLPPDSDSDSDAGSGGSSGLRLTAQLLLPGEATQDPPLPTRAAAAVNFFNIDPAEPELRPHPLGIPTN
Description: Receptor proteins were filtered and washed, the filters were then counted to determine [3H]LSD specifically bound.

[4] = target: T4, human recombinant serotonin (5-Hydroxytryptamine) 5-HT2C receptor (Homo sapiens, UniProt P28335); experiment: Serotonin 5-HT2C radioligand binding ([3H]Mesulergine); details: compound at 0.1 μM; read-out: Inhibition of ligand binding, Serotonin 5-HT2C (percent inhibition of specific binding)
T4 construct: expressed in transfected cells; host or cells: CHO-K1
T4 sequence (P28335 33-458): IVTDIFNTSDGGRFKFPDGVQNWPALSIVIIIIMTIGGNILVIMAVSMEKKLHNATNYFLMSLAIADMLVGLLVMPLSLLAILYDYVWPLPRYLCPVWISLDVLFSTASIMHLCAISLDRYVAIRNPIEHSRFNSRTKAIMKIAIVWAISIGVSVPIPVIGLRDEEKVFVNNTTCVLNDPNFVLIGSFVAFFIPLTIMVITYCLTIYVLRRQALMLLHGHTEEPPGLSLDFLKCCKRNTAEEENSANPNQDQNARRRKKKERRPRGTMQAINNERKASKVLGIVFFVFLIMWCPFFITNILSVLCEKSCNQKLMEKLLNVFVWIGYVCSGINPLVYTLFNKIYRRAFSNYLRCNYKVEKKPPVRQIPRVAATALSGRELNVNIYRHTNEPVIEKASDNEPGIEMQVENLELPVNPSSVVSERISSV
Description: Compounds of the invention were incubated with 1 nM [^3H]Mesulergine for 60 min at 25° C. Non-specific binding was estimated in the presence of 1 μM Mianserin. Receptor proteins were filtered and washed, the filters were then counted to determine [^3H]Mesulergine specifically bound.

[5] = target: T5, human recombinant dopamine D2L receptor (Homo sapiens, UniProt P14416); experiment: Dopamine D2L radioligand binding ([3H]Spiperone); details: read-out: Dopamine D2L (1 μM), percent inhibition of specific binding; compound at 1 μM; 0.16 nM [3H]Spiperone
T5 construct: expressed in transfected cells; host or cells: CHO
T5 sequence (P14416 whole entry): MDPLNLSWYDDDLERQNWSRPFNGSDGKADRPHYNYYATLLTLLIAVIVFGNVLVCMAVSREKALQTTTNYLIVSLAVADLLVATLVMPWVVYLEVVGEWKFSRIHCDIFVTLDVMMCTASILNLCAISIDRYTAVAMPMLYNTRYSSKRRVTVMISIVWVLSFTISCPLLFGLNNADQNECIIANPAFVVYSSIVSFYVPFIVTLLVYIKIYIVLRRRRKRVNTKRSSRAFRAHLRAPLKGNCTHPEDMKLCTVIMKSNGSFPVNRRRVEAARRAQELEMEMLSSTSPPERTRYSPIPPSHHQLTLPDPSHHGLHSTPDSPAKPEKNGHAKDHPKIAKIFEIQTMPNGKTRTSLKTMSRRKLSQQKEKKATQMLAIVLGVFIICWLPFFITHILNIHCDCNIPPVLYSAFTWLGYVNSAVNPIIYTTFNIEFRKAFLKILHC
Description: Non-specific binding was estimated in the presence of 10 μM Haloperidol. Receptor proteins were filtered and washed, the filters were then counted to determine [^3H]Spiperone specifically bound.

[6] = target: T6, human recombinant histamine H1 receptor (Homo sapiens, UniProt P35367); experiment: Histamine H1 radioligand binding ([3H]Pyrilamine); details: read-out: Histamine H1 Binding (1 μM), percent inhibition of specific binding; compound at 1 μM; 1.2 nM [3H]Pyrilamine
T6 construct: expressed in transfected cells; host or cells: CHO-K1
T6 sequence (P35367 whole entry): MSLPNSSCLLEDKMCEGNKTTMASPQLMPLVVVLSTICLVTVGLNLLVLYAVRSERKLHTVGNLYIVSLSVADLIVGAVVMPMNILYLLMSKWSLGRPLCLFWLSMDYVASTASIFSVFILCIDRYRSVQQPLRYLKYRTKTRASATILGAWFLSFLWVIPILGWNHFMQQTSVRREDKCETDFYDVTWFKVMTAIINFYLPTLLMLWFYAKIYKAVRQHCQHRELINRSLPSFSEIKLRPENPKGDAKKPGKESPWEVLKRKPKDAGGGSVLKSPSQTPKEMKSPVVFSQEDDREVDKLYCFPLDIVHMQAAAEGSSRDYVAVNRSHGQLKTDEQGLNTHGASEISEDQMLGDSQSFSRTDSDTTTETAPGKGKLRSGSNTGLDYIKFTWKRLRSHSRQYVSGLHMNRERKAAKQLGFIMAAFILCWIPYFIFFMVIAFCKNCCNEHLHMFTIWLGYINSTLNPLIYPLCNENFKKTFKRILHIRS
Description: To evaluate in radioligand binding assays the activity of compounds of the invention, human recombinant histamine H1 receptor expressed in Chinese hamster ovary (CHO) K1 cells (De Backer, M. et al, Biochem. Biophys. Res. Comm. 197(3):1601, 1993) in a modified Tris-HCl buffer (50 mM Tris-HCl, pH 7.4, 2 mM MgCl2, 100 mM NaCl, 250 mM Sucrose) was used. […] Non-specific binding was estimated in the presence of 1 μM Pyrilamine. Receptor proteins were filtered and washed, the filters were then counted to determine [^3H]Pyrilamine specifically bound. […] Biochemical assay results are presented as the percent inhibition of specific binding in Table 2.

SMILES | inhibition at 0.1 µM [1] | inhibition at 0.1 µM [2] | inhibition at 0.1 µM [3] | inhibition at 0.1 µM [4] | inhibition at 1 µM [5] | inhibition at 1 µM [6]
Cc1ccc2c(c1)c1c(n2-c2ccccc2-c2ccc(S(N)(=O)=O)cc2)CCN(C)C1 [Compound No. 163, 2′-(2,8-dimethyl-3,4-dihydro-1H-pyrido[4,3-b]indol-5(2H)-yl)biphenyl-4-sulfonamide] | 73% | 36% | 13% |  |  | 
COc1ccc(-n2c3c(c4cc(C)ccc42)CN(C)CC3)cn1 [Compound 17, 5-(6-Methoxy-pyridin-3-yl)-2,8-dimethyl-2,3,4,5-tetrahydro-1H-pyrido[4,3-b]indole] | 62% | 1% | 17% | 44% | 10% | 23%
CN1CCc2c(c3cc(Cl)ccc3n2-c2cscc2-c2ccc(F)cc2)C1 [Compound 25] | 81% | 94% | 56% | 91% | 39% | 80%
Cc1ccc2c(c1)c1c(n2-c2cscc2-c2ccccc2)CCN(C)C1 [Compound 21, 2,8-dimethyl-5-(4-phenyl-thiophen-3-yl)-2,3,4,5-tetrahydro-1H-pyrido[4,3-b]indole] | 90% | 99% | 62% | 96% | 54% | 86%
Cc1ccc2c(c1)c1c(n2-c2cscc2-c2ccc(F)cc2)CCN(C)C1 [Compound 23] | 83% | 98% | 45% | 90% | 44% | 72%
Cc1ccc2c(c1)c1c(n2-c2ccc(C)nc2)CCN(C)C1 [Compound 3, 2,8-dimethyl-5-(6-methyl-pyridin-3-yl)-2,3,4,5-tetrahydro-1H-pyrido[4,3-b]indole] | 36% | 8% | 20% | 26% | 16% | 10%
Cc1ccc2c(c1)c1c(n2-c2ccccc2N(C)C)CCN(C)C1 [Compound 6, [2-(2,8-dimethyl-1,2,3,4-tetrahydro-pyrido[4,3-b]indol-5-yl)-phenyl]-dimethyl-amine] | 91% | 49% | 28% | 90% | 58% | 99%
Cc1ccc2c(c1)c1c(n2-c2ncccc2-c2ccncc2)CCN(C)C1 [Compound No. 161, 5-(3,4′-bipyridin-2-yl)-2,8-dimethyl-2,3,4,5-tetrahydro-1H-pyrido[4,3-b]indole] | 17% | 18% | 4% |  |  | 
Cc1ccc2c(c1)c1c(n2-c2ccncc2)CCN(C)C1 [Compound 2, 2,8-dimethyl-5-pyridin-4-yl-2,3,4,5-tetrahydro-1H-pyrido[4,3-b]indole] | 74% | 36% | 17% | 54% | 13% | 51%
Cc1ccc2c(c1)c1c(n2-c2cscc2-c2cccnc2)CCN(C)C1 [Compound 22, 2,8-dimethyl-5-(4-pyridin-3-yl-thiophen-3-yl)-2,3,4,5-tetrahydro-1H-pyrido[4,3-b]indole] | 75% | 91% | 14% | 80% | 39% | 85%
Cc1ccc2c(c1)c1c(n2-c2cnc(C)c3ccccc23)CCN(C)C1 [Compound No. 164, 2,8-dimethyl-5-(1-methylisoquinolin-4-yl)-2,3,4,5-tetrahydro-1H-pyrido[4,3-b]indole] | 23% | 4% | 1% |  |  | 
Cc1ccc2c(c1)c1c(n2-c2ccc3ncccc3c2)CCN(C)C1 [Compound 24, 2,8-dimethyl-5-quinolin-6-yl-2,3,4,5-tetrahydro-1H-pyrido[4,3-b]indole] | 72% | 25% | 12% | 66% | 45% | 10%
Cc1ccc2c(c1)c1c(n2-c2cccc(N(C)C)c2)CCN(C)C1 [Compound 7, [3-(2,8-dimethyl-1,2,3,4-tetrahydro-pyrido[4,3-b]indol-5-yl)-phenyl]-dimethyl-amine] | 52% | 19% | 4% | 42% | 31% | 43%
Cc1ccc2c(c1)c1c(n2-c2cscn2)CCN(C)C1 [Compound 19, 2,8-dimethyl-5-thiazol-4-yl-2,3,4,5-tetrahydro-1H-pyrido[4,3-b]indole] | 64% | 51% | 15% | 71% | 14% | 59%
Cc1ccc2c(c1)c1c(n2-c2ccccc2-c2cccnc2)CCN(C)C1 [Compound 13, 2,8-dimethyl-5-(2-pyridin-3-yl-phenyl)-2,3,4,5-tetrahydro-1H-pyrido[4,3-b]indole] | 73% | 47% | 14% | 73% | 21% | 72%
CN1CCc2c(c3cc(Cl)ccc3n2-c2cscc2-c2cccnc2)C1 [Compound 27] | 67% | 94% | 30% | 72% | 26% | 76%
Cc1ccc2c(c1)c1c(n2-c2ccccc2-c2ccc(S(C)(=O)=O)cc2)CCN(C)C1 [Compound No. 160, 2,8-dimethyl-5-(4′-(methylsulfonyl)biphenyl-2-yl)-2,3,4,5-tetrahydro-1H-pyrido[4,3-b]indole] | 36% | 17% | 18% |  |  | 
Cc1ccc2c(c1)c1c(n2-c2cccc3cnccc23)CCN(C)C1 [Compound 9, 5-isoquinolin-5-yl-2,8-dimethyl-2,3,4,5-tetrahydro-1H-pyrido[4,3-b]indole] | 54% | 59% | 5% | 77% | 0% | 65%
Cc1ccc2c(c1)c1c(n2-c2ccc(C(F)(F)F)nc2)CCN(C)C1 [Compound 4, 2,8-dimethyl-5-(6-trifluoromethyl-pyridin-3-yl)-2,3,4,5-tetrahydro-1H-pyrido[4,3-b]indole] | 67% | 1% | 14% | 73% | 0% | -1%
Cc1ccc2c(c1)c1c(n2-c2ccccc2-c2cnccc2C)CCN(C)C1 [Compound No. 159, 2,8-dimethyl-5-(2-(4-methylpyridin-3-yl)phenyl)-2,3,4,5-tetrahydro-1H-pyrido[4,3-b]indole] | 48% | 19% | 0% |  |  | 
